Experimental data published in patent publication US5434052A, “Complementation assay for drug screening” (Microgenics Corporation, priority 1993, dated 1995).

Tests used:
[1] = molecular target: T1, bovine Folate Binding Protein (Bos taurus, UniProt P02702); assay: Inhibition of ED14-Folate conjugate with folate binding protein; competition by folic acid sample, β-galactosidase complementation; parameters: dose or concentration left out as unconfirmed; settings: folate binding protein diluted approximately 1:2500
T1 construct: purchased Biochemical Inc., Englewood, Colo
Procedure: Binding Protein Reagent consists of bovine Folate Binding Protein (Biochemical Inc., Englewood, Colo.) diluted approximately 1:2500 in 150 mM potassium phosphate, 50 mM sodium borate, 1% BSA (B12-Grade BSA, Sigma, St. Louis, Mo.), 1% Lubrol and 20 mM sodium azide, pH 7.0. ED14-Folate Conjugate/Substrate Reagent contains approximately 6.3 nM ED-Folate, 1.0 mg/ml OCNPG (o-chloro-p-nitrophenol galactopyranoside), 100 mM sodium phosphate, 150 mM potassium phosphate, 10 mM ethylene glycol tetraacetic acid, 2.5 mM dithiothreitol, 20 mM sodium azide, 0.05% Tween 20 with 0.05 mM dithiothreitol, pH 7.0. EA Reagent consists of a recombinant protein resembling the carboxyl-terminal end of β-galactosidase in 100 mM sodium phosphate, 150 mM potassium phosphate, 10 mM ethylene glycol tetraacetic acid, 5 mM magnesium acetate, 20 mM sodium azide, 0.05% Tween 20 with 0.05 mM dithiothreitol pH 7.0. EA concentration is approximately 2.2 μM. The assay procedure involves mixing of 300 μl of folic acid sample with 100 μl of binding protein reagent and incubation for 15 min at room temperature. This becomes the pretreated sample. An instrument (clinical chemistry analyzer) is programmed to deliver 30 μl of pretreated sample with 100 μl of ED-Folate reagent for 2 to 5 min at 37° C. This is followed by the addition of 220 μl of EA reagent to the reaction mixture by the instrument and the enzyme rate is read by absorbance change at […]. The following table indicates a typical assay performance.

[2] = molecular target: T2, (Homo sapiens, UniProt P05543); assay: Inhibition of ED4-T4 conjugate by thyroxin binding globulin, β-galactosidase complementation; settings: 18 nM ED4-T4; for Observed Enzyme Rate: 420 nM, 37° C.
T2 construct: purchased Protus Laboratories, South San Francisco, CA
T2 sequence (P05543 21-415): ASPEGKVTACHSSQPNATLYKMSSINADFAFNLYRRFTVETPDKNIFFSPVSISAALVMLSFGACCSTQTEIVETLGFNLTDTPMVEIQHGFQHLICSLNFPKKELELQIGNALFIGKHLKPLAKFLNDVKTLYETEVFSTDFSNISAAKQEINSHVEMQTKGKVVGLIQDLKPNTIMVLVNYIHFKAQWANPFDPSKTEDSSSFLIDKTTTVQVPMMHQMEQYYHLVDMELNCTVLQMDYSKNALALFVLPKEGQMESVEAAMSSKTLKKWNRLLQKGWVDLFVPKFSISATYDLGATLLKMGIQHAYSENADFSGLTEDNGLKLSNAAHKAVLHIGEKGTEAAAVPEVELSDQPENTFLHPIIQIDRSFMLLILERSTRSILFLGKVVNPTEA
Procedure: Buffer=20 mM NaPO4 10 mM EGTA, 2 mM MgOAc, 3.6% Glycerol, 5 mM Sucrose, 20 mM NaN3, pH 7.0
Reagent=5U EA/Test or 31.25 U/ml of EA in EA Buffer
Buffer=20 mM NaPO4, 10 mM EGTA, 6.25 mg/ml ONPG, 0.05% Tween/DTT, 20 mM NaN3, pH 7.0
Reagent=18 nM ED4-T4 system concentration or 112.5 nM ED4-T4 in ED reagent buffer
Machine Program Parameters:
The receptor was purified TBG from Protus Laboratories, South San Francisco, CA diluted in PBS.

T1 sequence (P02702 20-241): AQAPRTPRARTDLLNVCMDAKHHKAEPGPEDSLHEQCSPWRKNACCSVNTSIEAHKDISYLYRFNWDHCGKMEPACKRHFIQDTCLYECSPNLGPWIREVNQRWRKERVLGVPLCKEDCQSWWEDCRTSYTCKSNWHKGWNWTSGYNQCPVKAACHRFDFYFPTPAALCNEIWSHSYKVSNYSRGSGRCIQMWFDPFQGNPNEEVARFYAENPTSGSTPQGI

Which results are given for `Nc1nc2ncc(CNc3ccc(C(=O)N[C@@H](CCC(=O)O)C(=O)O)cc3)nc2c(=O)[nH]1` [Folate, Folic acid]?
% Inhibition of ED14-Folate Conjugate ([1]; folate in sample 20): 18.8%; Observed Enzyme Rate ([1]; folate in sample 20): 290; % Inhibition of ED14-Folate Conjugate ([1]; folate in sample 200): 0.0%; Observed Enzyme Rate ([1]; folate in sample 200): 357

B1: TBG: purified TBG from Protus Laboratories, diluted in PBS (protein, UniProt P05543 21-415, looked up)
Thyroxine-binding globulin: T2 sequence (P05543 21-415)
What does the source list for B1?
% Inhibition ([2]; TBG receptor 18.3 μg/ml): 22%; Observed Enzyme Rate ([2]; TBG receptor 18.3 μg/ml): 367 mA/min; % Inhibition ([2]; TBG receptor 55.0 μg/ml): 68%; Observed Enzyme Rate ([2]; TBG receptor 55.0 μg/ml): 154 mA/min
